Experiment: Determination of relaxivities r1 and r2 of contrast agents under MRI
Format: physicochemical
Description: During an MRI study, an MRI contrast agent generally shortens the value of a characteristic time constant known as the relaxation time of the nearby water protons at the tissues being examined to thereby enhance contrast of the image. The relaxivity of a contrast agent reflects how the relaxation rates of a solution change as a function of concentration [C]. Since a contrast agent may individually affect two relaxation rates (1/ΔT1 and 1/ΔT2), the degree of contrast as provided by a contrast agent is generally characterized under two corresponding relaxivities, i.e. r1 and r2 (L/mmol-s), which are defined by: 1/ΔT1=r1·[C] and 1/ΔT2=r2·[C]
The relaxation rates of a contrast agent in solution are obtained by graphing changes in relaxation rates (1/ΔT1) and (1/ΔT2) at different concentrations, with r1 and r2 being determined by the slopes of the graph.
For each of the contrast agents being tested, samples have been prepared in 10 different concentrations, namely, 1000 μg/ml, 750 μg/ml, 500 μg/ml, 250 μg/ml, 125 μg/ml, 62.50 μg/ml, 31.25 μg/ml, 15.63 μg/ml, 7.81 μg/ml and 3.91 μg/ml using DMF:H2O 4:1 as solvent for dilution of the respective stock samples.

[1] = 10 concentrations 3.91-1000 μg/ml in DMF:H2O 4:1

SMILES	r1 [1] [mL/µg/s]	r1 (molecular weight adjusted) [L/mmol/s]
O=[N+]([O-])[O-].O=[N+]([O-])[O-].O=[N+]([O-])[O-].[Fe+3] [Fe(NO3)3, iron nitrate]	0.0004	0.0968
[Cl][Gd]([Cl])[Cl] [GdCl3]	0.0494	13.0416

— patent publication US10434193B2, “Composition for use in medical imaging and a method for preparing thereof” (Jacobson Research Laboratory Limited, priority 2017, dated 2019)
